Tests used:
[1] = system: HCV replicon cells; assay: HCV replicon assay (FRET or luciferase readout); format: cell-based; conditions: Hepatitis C virus
Source text: FRET Assay Preparation. To perform the HCV FRET screening assay, 96-well cell culture plates were used. The FRET peptide (Anaspec, Inc.) (Taliani et al., Anal. Biochem. 1996, 240, 60-67) contains a fluorescence donor, EDANS, near one end of the peptide and an acceptor, DABCYL, near the other end. The fluorescence of the peptide is quenched by […] resonance energy transfer (RET) between the donor and the acceptor, but as the NS3 protease cleaves the peptide the products are released from RET quenching and the fluorescence of the donor becomes apparent. The assay reagent was made as follows: 5× cell Luciferase cell culture lysis reagent from Promega (#E153A) diluted to 1× with dH2O, NaCl added to 150 mM final, the FRET peptide diluted to 20 μM final from a 2 mM stock.
To prepare plates, HCV replicon cells, with or without a Renilla luciferase reporter gene, were trypsinized and placed into each well of a 96-well plate with titrated test compounds added in columns 3 through 12; columns 1 and 2 contained a control compound (HCV protease inhibitor), and the bottom row contained cells without compound. The plates were then placed in a CO2 incubator at 37° C.
Assays. Subsequent to addition of the test compounds described above (FRET Assay Preparation), at various times the plate was removed and Alamar blue solution (Trek Diagnostics, #00-100) was added per well as a measure of cellular toxicity. After reading in a Cytoflour 4000 instrument (PE Biosystems), plates were rinsed with PBS and then used for FRET assay by the addition of 30 ul of the FRET peptide assay reagent described above (FRET Assay Preparation) per well. The plate was then placed into the Cytoflour 4000 instrument which had been set to 340 excite/490 emission, automatic mode for 20 cycles and the plate read in a kinetic mode. Typically, the signal to noise using an endpoint analysis after the reads was at least three-fold. Alternatively, after Alamar blue reading, plates were rinsed with PBS, 50 ul of DMEM (high glucose) without phenol red was added and plates were then used for luciferase assay using the Promega Dual-Glo Luciferase Assay System.
Compound analysis was determined by quantification of the relative HCV replicon inhibition and the relative cytotoxicity values. To calculate cytoxicity values, the average Alamar Blue fluorescence signals from the control wells were set as 100% non-toxic. The individual signals in each of the compound test wells were then divided by the average control signal and multiplied by 100% to determine […]. To calculate the HCV replicon inhibition values, an average background value was obtained from the two wells containing the highest amount of HCV protease inhibitor at the end of the assay period. These numbers were similar to those obtained from naïve Huh-7 cells.
The background numbers were then subtracted from the average signal obtained from the control wells and this number was used as 100% activity. The individual signals in each of the compound test wells were then divided by the averaged control values after background subtraction and multiplied by 100% to determine percent activity. EC50 values for a protease inhibitor titration were calculated as the concentration which caused a 50% reduction in FRET or luciferase activity. The two numbers generated for the compound plate, percent cytoxicity and percent activity were used to determine compounds of interest for further analysis.

[2] = biological target: T1, HCV NS5B RdRp genotype 1b (Hepatitis C virus genotype 1b, UniProt Q9WMX2); assay: HCV NS5B RdRp enzyme assay (standard / modified); format: biochemical; conditions: HCV NS5B genotype 1b
T1 construct: The protein was expressed with an 18 amino acid C-terminal truncation to enhance the solubility; made in house; host or cells: E. coli BL21(DE3), pET21a vector
T1 sequence (Q9WMX2 2420-2992): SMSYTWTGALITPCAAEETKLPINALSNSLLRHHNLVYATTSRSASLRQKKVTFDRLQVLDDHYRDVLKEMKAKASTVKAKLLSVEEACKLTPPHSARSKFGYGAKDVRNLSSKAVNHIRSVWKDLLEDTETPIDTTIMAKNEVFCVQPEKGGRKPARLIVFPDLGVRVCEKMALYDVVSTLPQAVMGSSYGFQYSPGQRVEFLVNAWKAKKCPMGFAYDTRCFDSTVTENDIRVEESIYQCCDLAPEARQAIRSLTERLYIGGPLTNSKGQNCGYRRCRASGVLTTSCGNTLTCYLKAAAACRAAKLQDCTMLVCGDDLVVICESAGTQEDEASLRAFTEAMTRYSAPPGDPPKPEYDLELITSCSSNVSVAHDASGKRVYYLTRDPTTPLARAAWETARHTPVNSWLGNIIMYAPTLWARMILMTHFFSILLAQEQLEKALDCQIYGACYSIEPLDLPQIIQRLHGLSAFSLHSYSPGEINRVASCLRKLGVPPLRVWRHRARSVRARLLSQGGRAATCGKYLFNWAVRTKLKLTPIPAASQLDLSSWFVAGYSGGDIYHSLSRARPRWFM
Description: HCV NS5B RdRp cloning, expression, and purification. The cDNA encoding the NS5B protein of HCV, genotype 1b, was cloned into the pET21a expression vector. The protein was expressed with an 18 amino acid C-terminal truncation to enhance the solubility. The E. coli competent cell line BL21(DE3) was used for expression of the protein. Cultures were grown at 37° C. for ˜4 hours until the cultures reached an optical density of 2.0 at 600 nm. The cultures were cooled to 20° C. and induced with 1 mM IPTG. Fresh ampicillin was added to a final concentration of 50 μg/ml and the cells were grown overnight at 20° C.
Cell pellets (3 L) were lysed for purification to yield 15-24 mgs of purified NS5B. The lysis buffer consisted of 20 mM Tris-HCl, pH 7.4, 500 mM NaCl, 0.5% triton X-100, 1 mM DTT, 1 mM EDTA, 20% glycerol, 0.5 mg/ml lysozyme, 10 mM MgCl2, 15 ug/ml deoxyribonuclease I, and Complete™ protease inhibitor tablets (Roche). After addition of the lysis buffer, frozen cell pellets were resuspended using a tissue homogenizer. To reduce the viscosity of the sample, aliquots of the lysate were sonicated on ice using a microtip attached to a Branson sonicator. The sonicated lysate was centrifuged at 100,000×g for 1 hr at 4° C. and filtered through a 0.2 μm filter unit (Corning).
The protein was purified using three sequential chromatography steps: Heparin sepharose CL-6B, polyU sepharose 4B, and Hitrap SP sepharose (Pharmacia). The chromatography buffers were identical to the lysis buffer but contained no lysozyme, deoxyribonuclease I, MgCl2 or protease inhibitor and the NaCl concentration of the buffer was adjusted according to the requirements for charging the protein onto the column. Each column was eluted with a NaCl gradient which varied in length from 5-50 column volumes depending on the column type. After the final chromatography step, the resulting purity of the enzyme is >90% based on SDS-PAGE analysis. The enzyme was aliquoted and stored at −80° C.
Standard HCV NS5B RdRp enzyme assay. HCV RdRp genotype 1b assays were run in a final volume of 60 μl in 96 well plates (Costar 3912). The assay buffer is composed of 20 mM Hepes, pH 7.5, 2.5 mM KCl, 2.5 mM MgCl2, 1 mM DTT, 1.6 U RNAse inhibitor (Promega N2515), 0.1 mg/ml BSA (Promega R3961), and 2% glycerol. All compounds were serially diluted (3-fold) in DMSO and diluted further in water such that the final concentration of DMSO in the assay was 2%. HCV RdRp genotype 1b enzyme was used at a final concentration of 28 nM. A polyA template was used at 6 nM, and a biotinylated oligo-dT12 primer was used at 180 nM final concentration. Template was obtained commercially (Amersham 27-4110). Biotinylated primer was prepared by Sigma Genosys. 3H-UTP was used at 0.6 μCi (0.29 μM total UTP). Reactions were initiated by the addition of enzyme, incubated at 30° C. for 60 min, and stopped by adding 25 μl of 50 mM EDTA containing SPA beads (4 μg/μl, Amersham RPNQ 0007). Plates were read on a Packard Top Count NXT after >1 hr incubation at room temperature.
Modified HCV NS5B RdRp enzyme assay. A modified enzyme assay was performed essentially as described for the standard enzyme assay except for the following: The biotinylated oligo dT12 primer was precaptured on streptavidin-coated SPA beads by mixing primer and beads in assay buffer and incubating at room temperature for one hour. Unbound primer was removed after centrifugation. The primer-bound beads were resuspended in 20 mM Hepes buffer, pH 7.5 and used in the assay at final concentrations of 20 nM primer and 0.67 μg/μl beads. Order of addition in the assay: enzyme (14 nM) was added to diluted compound followed by the addition of a mixture of template (0.2 nM), 3H-UTP (0.6 μCi, 0.29 μM), and primer-bound beads, to initiate the reaction; concentrations given are final. Reactions were allowed to proceed for 4 hours at 30° C.
IC50 values for compounds were determined using seven different [I]. […]

Structure (SMILES) | EC50 ([1]; Table 2) [nM] | IC50 ([2]; Table 2) [nM] | EC50 ([1]; Table 1) [nM] | IC50 ([2]; Table 1) [nM]
CNC(=O)c1c(-c2ccc(F)cc2)nn2ccc(-c3cc(C(=O)NC4(c5ccccn5)CC4)ccc3C)c(F)c12 [drawing 177] | 7.15 | 5 |  | 
CNC(=O)c1c(-c2ccc(F)cc2)nn2ccc(-c3cc(C(=O)NC4(C5CC5)CC4)c(OC)cc3C)c(F)c12 |  |  | 2 to 250 | 2 to 250
CNC(=O)c1c(-c2ccc(F)cc2)nn2cc(N(CCO)S(C)(=O)=O)c(C3CC3)cc12 |  |  | 1000 to 10000 | 2 to 250
COC(=O)c1c(-c2ccccc2)nn2ccc(-c3cccc(C(=O)NC(C)(C)c4ccccc4)c3)cc12 |  |  | > 10000 | > 10000
CC(C)(NC(=O)c1cccc(-c2ccn3nc(-c4ccccc4)c(C(=O)O)c3c2)c1)c1ccccc1 |  |  | > 10000 | > 10000
CCN(c1cn2nc(-c3ccc(F)cc3)c(C(=O)NC)c2cc1-c1cccc(C(=O)NC2(c3ccccn3)CC2)c1)S(C)(=O)=O |  |  | 2 to 250 | 2 to 250
CNC(=O)c1c(-c2ccc(F)cc2)nn2cc(N(CCO)S(C)(=O)=O)c(-c3cc(C(=O)NCC(C)C)ccc3Cl)cc12 |  |  | 250 to 1000 | 2 to 250
CNC(=O)c1c(-c2ccc(F)cc2)nn2ccc(-c3cc(C(=O)NC4(c5ccccc5)CC4)c(OC)cc3C)c(F)c12 [drawing 174] | 3.92 | 10 |  | 
CCN(c1cn2nc(-c3ccc(F)cc3)c(C(=O)NC)c2cc1-c1cc(C(=O)NC2(c3ccccn3)CC2)ccc1C)S(C)(=O)=O |  |  | 2 to 250 | 2 to 250
CNC(=O)c1c(-c2ccc(F)cc2)nn2ccc(-c3cc(C(=O)NC4(c5ccccn5)CC4)ccc3C)cc12 [drawing 179] | 10 | 5.15 |  | 
CNC(=O)c1c(-c2ccc(F)cc2)nn2cc(N(CCOC)S(C)(=O)=O)c(-c3cccc(C(=O)NC(C)(C)c4ccccc4)c3)cc12 |  |  | 2 to 250 | 2 to 250
CNC(=O)c1c(-c2ccc(F)cc2)oc2cnc(-c3cc(C(=O)NC4(c5ccccn5)CC4)ccc3C)cc12 |  |  | 2 to 250 | 2 to 250
CNC(=O)c1c(-c2ccc(F)cc2)nn2cc(N(CCO)S(C)(=O)=O)c(-c3cccc(C(=O)NC4(c5ccccn5)CC4)c3)cc12 [drawing 182] | 1560 | 60 |  | 
CNC(=O)c1c(-c2ccc(F)cc2)nn2cccc(NC(=O)OC(C)(C)C)c12 |  |  | > 10000 | > 10000
CCN(c1cn2nc(-c3ccc(F)cc3)c(C(=O)NC)c2cc1C1CCCCC1)S(C)(=O)=O |  |  | 1000 to 10000 | 1000 to 10000
CNC(=O)c1c(-c2ccc(F)cc2)nn2ccc(-c3cccc(C(=O)NC(C)(C)C)c3)cc12 |  |  | 2 to 250 | 250 to 1000
CNC(=O)c1c(-c2ccc(F)cc2)nc2ccc(C3CC3C(=O)NC3(c4ccccn4)CC3)cn12 (centres unmarked) [drawing 159] |  |  | > 10000 | > 10000

Structure (SMILES) | EC50 ([1]; Table 2) [nM] | IC50 ([2]; Table 2) [nM] | EC50 ([1]; Table 1) [nM] | IC50 ([2]; Table 1) [nM]
CNC(=O)c1c(-c2ccc(F)cc2)[nH]c2ccc(-c3cccc(C(=O)NC(C)(C)c4ccccc4)c3)cc12 [drawing 181] | 460 | 720 |  | 
CNC(=O)c1c(-c2ccc(F)cc2)nn2cc(N(CC3CC3)S(C)(=O)=O)c(-c3cccc(C(=O)NC(C)(C)c4ccccc4)c3)cc12 |  |  | 2 to 250 | 2 to 250
CNC(=O)c1c(-c2ccc(F)cc2)nn2ccc(-c3cc(C(=O)NC4(c5ccccc5)CCC4)ccc3C)cc12 |  |  | 2 to 250 | 2 to 250
CCN(c1cn2nc(-c3ccc(F)cc3)c(C(=O)NC)c2cc1C1CCCC1)S(C)(=O)=O |  |  | 1000 to 10000 | 250 to 1000
CNC(=O)c1c(-c2ccc(F)cc2)nn2ccc(NC(=O)OC(C)(C)C)cc12 |  |  | > 10000 | > 10000
CNC(=O)c1c(-c2ccc(F)cc2)nn2ccc(-c3cc(C(=O)NC4(c5ccccc5F)CC4)c(OC)cc3C)c(F)c12 |  |  | 250 to 1000 | 2 to 250
CNC(=O)c1c(-c2ccc(F)cc2)nn2ccc(-c3cccc(C(=O)NC4(c5ccccc5)CC4)c3)cc12 |  |  | 2 to 250 | 2 to 250
CNC(=O)c1cccc(-c2ccc3c(C(=O)NC)c(-c4ccccc4)nn3c2)c1 |  |  | > 10000 | > 10000
CNC(=O)c1c(-c2ccc(F)cc2)nn2cc(N(CCO)S(C)(=O)=O)c(-c3cccc(C(=O)NC(C)(C)c4ccccc4)c3)cc12 |  |  | 2 to 250 | 2 to 250
CNC(=O)c1c(-c2ccccc2)nn2cc(N3CCOC3=O)ccc12 |  |  | > 10000 | > 10000
CNC(=O)c1c(-c2ccc(F)cc2)nn2cccc(N)c12 |  |  | > 10000 | > 10000
CNC(=O)c1c(-c2ccccc2)nn2cc(I)ccc12 |  |  | > 10000 | > 10000
CNC(=O)c1c(-c2ccc(F)cc2)nn2ccc(NC(=O)c3ccccc3OC)cc12 |  |  | > 10000 | > 10000
CNC(=O)c1c(-c2ccc(F)cc2)nn2cc(NC(=O)OC(C)(C)C)ccc12 |  |  | > 10000 | > 10000
CNC(=O)c1c(-c2ccc(F)cc2)nn2ccc(-c3cc(C(=O)NC4(C)CC4)c(OC)cc3C)c(F)c12 |  |  | 2 to 250 | 2 to 250
CNC(=O)c1c2cc(-c3cccc(C(=O)NC4(c5ccccn5)CC4)c3)ccc2nn1-c1ccc(F)cc1 |  |  | 1000 to 10000 | 1000 to 10000
CNC(=O)c1c2cc(-c3cccc(C(=O)NC(C)(C)C)c3)ccc2nn1-c1ccc(F)cc1 |  |  | 1000 to 10000 | 1000 to 10000

From US8293909B2, “Compounds for the treatment of hepatitis C” (Bristol-Myers Squibb Company, priority 2008, dated 2012)
